According to patent EP4748847A1, “PEPTIDE COMPLEX HAVING VEGFR -2 AGONIST ACTIVITY” (Peptidream Inc, priority 2023, dated 2025):
*1 amine or outer side, *2 acyl side, *3 side chain or, on linkers, in order; H or OH if unused. Where a SMILES comes first, the peptide text is derived from it. Bridges are numbered along the chain shown (N, C = ends). Roman numbers before positions name the chains, in order. Where no end group is shown, it is not given here. [ ]: non-standard residue; d: D form. X1 = O=C(OCCOCCOCCOCCOCCOCCOCCOCCOCCOCCOCCOCCOCCOCCOCCOCCOC(=O)[*:2])[*:1]; X2 = O=C(OCCOCCOCCOCCOCCOCCOCCOCCOCCOCCOCCOCCOC(=O)[*:2])[*:1]; Phe(4-guanidino) = N=C(N)Nc1ccc(C[C@H](N)C(=O)O)cc1; hTyr = N[C@@H](CCc1ccc(O)cc1)C(=O)O; tBuAla = CC(C)(C)C[C@H](N)C(=O)O; Tle = CC(C)(C)[C@H](N)C(=O)O

Key:
VEGFR-2 = biological target: T1, VEGFR-2 (Homo sapiens, UniProt P35968); assay: pVEGFR AlphaLISA assay (VEGFR-2 phosphorylation, p-Tyr1175) in HUVECs; type: cell-based; details: 10 minutes stimulation, % activity, maximum VEGF165a signal = 100%, unstimulated = 0%
T1 construct: endogenous in cells; host or cells: HUVEC
In short: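 HUVECs grown 2 days, starved 18 hours in EBM-2 with 0.5% FBS, then stimulated 10 minutes at 37°C with peptide or VEGF165a (0.08–20 nM). VEGFR-2 p-Tyr1175 in lysates read by AlphaLISA; % activity scaled to maximal VEGF165a signal (100%) and unstimulated control (0%), binned by activity at tested peptide concentrations.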

ERK = assay: pERK AlphaLISA assay (ERK phosphorylation, p-Erk1/2 Thr202/Tyr204) in HUVEC lysate; type: cell-based, human; details: HUVEC lysate of the pVEGFR assay; % activity, maximum VEGF165a signal = 100%, unstimulated = 0%; peptide 10, 100 nM (dimer structures 2-41)
Procedure: To evaluate the intracellular signaling activation ability of the VEGFR-2 agonist peptides of the present invention, ERK phosphorylation was verified. Using the lysate employed in the pVEGFR AlphaLISA assay, the assay was performed according to the protocol of the AlphaLISA SureFire Ultra p-Erk1/2 (Thr202/Tyr204) Assay Kit (PerkinElmer). Signal detection was performed using a SpectraMax Paradigm multimode microplate reader (Molecular Devices). The obtained signals were analyzed using GraphPad Prism, and % activity was calculated with the maximum signal induced by VEGF165a set as 100% and the unstimulated control as 0%.
The VEGF165a concentration was evaluated at five points (0.08, 0.31, 1.25, 5, 20 nM) using 1/4-fold dilutions starting from 20 nM to determine the maximum value (100%). Peptide concentrations tested were: 3.2, 16, 80 nM for dimer structure […], 100 nM for dimer structures numbers 2-41; and 1.25, 5, 20 nM for dimer structures numbers 42-57.
For % activity, peptides showing ≥50% activity at 3.2 nM were designated 1-A, those showing ≥50% activity at 16 nM were designated 1-B, those showing ≥50% activity at 80 nM were designated 1-C, and those showing ≥1% but <50% activity at 80 nM were designated 1-D. […]

HUVEC = HUVEC proliferation promotion evaluation (CellTiter-Glo); type: cell-based, human; details: 2 days culture, % activity, maximum VEGF165a signal = 100%, peptide 1, 10, 100 nM
Procedure: To evaluate the biological activity of the VEGFR-2 agonist peptide of the present invention, an HUVEC proliferation promotion evaluation was conducted. HUVECs cultured as described above were detached using Tryple (Thermo Fisher Scientific). They were then seeded at 10,000 cells per well onto Nunc™ MicroWell™ 96 -Well, Nunclon Delta-Treated, Flat-Bottom Microplate (cat. #136101) . After 24 hours, cells were starved by replacing with EBM-2 medium (LONZA) containing 0.5% FBS (Thermo Fisher Scientific), 0.1% Heparin (included with the above Lonza CC-3162), and 0.1% Gentamicin (Nacalai) and cultured for 18 hours. Subsequently, Recombinant Human VEGF 165a Protein (R&D Systems) or the peptide was added, and the cells were cultured for 2 days at 37°C in a CO2 incubator. Assays were performed according to the CellTiter-Glo (Promega) kit protocol, and signals were detected using a SpectraMax Paradigm multimode microplate reader (Molecular Devices) was used for signal detection. The obtained signals were analyzed using GraphPad Prism, and % activity was calculated with the maximum signal induced by VEGF165a set as 100% and the unstimulated control as 0%.
The VEGF165a concentration was evaluated at six points (0.006, 0.03, 0.16, 0.8, 4, 20 nM) using 1/5-fold dilutions starting from 20 nM to determine the maximum value (100%). […]

[1] = peptide 10, 100 nM (dimer structures 2-41)

T1 sequence (P35968 20-1356): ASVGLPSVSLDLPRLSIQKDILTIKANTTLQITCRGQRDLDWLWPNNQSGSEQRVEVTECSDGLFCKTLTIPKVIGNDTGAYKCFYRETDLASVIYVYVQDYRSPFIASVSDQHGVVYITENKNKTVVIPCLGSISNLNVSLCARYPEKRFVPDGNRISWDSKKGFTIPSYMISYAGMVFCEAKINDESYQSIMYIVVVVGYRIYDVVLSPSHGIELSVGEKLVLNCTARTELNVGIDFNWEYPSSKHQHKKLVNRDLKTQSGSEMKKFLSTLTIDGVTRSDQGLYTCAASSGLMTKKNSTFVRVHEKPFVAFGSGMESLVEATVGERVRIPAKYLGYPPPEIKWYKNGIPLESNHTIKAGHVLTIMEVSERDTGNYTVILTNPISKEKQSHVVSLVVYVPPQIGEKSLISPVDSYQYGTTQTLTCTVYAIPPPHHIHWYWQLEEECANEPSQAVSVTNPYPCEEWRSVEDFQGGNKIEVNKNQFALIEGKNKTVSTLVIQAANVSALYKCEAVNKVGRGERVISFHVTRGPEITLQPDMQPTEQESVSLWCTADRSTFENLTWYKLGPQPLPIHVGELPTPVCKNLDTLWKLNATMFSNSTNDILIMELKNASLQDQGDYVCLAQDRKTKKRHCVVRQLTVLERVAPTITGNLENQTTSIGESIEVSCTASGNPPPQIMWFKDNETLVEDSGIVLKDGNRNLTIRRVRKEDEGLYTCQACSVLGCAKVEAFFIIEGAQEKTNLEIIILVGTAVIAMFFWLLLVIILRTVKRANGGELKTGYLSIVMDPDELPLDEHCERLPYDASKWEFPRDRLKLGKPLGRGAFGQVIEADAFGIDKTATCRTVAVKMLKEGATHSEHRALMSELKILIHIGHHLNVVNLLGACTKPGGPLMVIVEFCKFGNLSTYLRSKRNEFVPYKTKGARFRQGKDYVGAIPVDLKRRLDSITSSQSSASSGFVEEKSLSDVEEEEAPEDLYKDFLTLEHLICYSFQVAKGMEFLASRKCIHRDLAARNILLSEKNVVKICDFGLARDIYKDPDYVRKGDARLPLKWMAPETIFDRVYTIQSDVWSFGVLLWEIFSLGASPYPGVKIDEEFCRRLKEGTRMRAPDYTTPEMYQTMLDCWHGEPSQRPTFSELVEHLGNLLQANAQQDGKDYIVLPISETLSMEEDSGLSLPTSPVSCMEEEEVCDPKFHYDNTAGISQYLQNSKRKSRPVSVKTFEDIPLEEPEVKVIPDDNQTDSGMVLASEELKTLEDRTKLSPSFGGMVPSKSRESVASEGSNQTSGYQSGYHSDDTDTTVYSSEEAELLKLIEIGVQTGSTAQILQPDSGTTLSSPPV

Compound	pVEGFR2 Assay Results (VEGFR-2; [1])	pERK Assay Results (ERK)	proliferation (HUVEC)	pVEGFR2 Assay Results (VEGFR-2; peptide 1.25, 5, 20 nM (dimer structures 42-57))
CC(C)[C@@H]1NC(=O)CNC(=O)[C@H](CCCCNC(=O)OCCOCCOCCOCCOCCOCCOCCOCCOCCOCCOCCOCCOC(=O)NCCCC[C@@H]2NC(=O)[C@H](C(C)C)NC(=O)[C@H](CC(=O)O)NC(=O)[C@H](C(C)C)NC(=O)[C@H](Cc3c[nH]c4ccccc34)NC(=O)[C@H](Cc3c[nH]c4ccccc34)NC(=O)CSC[C@@H](C(=O)NCC(N)=O)NC(=O)[C@H](CC(=O)O)NC(=O)[C@H](CCc3ccc(O)cc3)NC(=O)[C@H](Cc3ccccc3)NC(=O)[C@H](Cc3ccc(O)cc3)NC(=O)[C@H](CC(N)=O)NC(=O)[C@H](C(C)C)NC(=O)CNC2=O)NC(=O)[C@H](C(C)C)NC(=O)[C@H](CC(=O)O)NC(=O)[C@H](C(C)C)NC(=O)[C@H](Cc2c[nH]c3ccccc23)NC(=O)[C@H](Cc2c[nH]c3ccccc23)NC(=O)CSC[C@@H](C(=O)NCC(N)=O)NC(=O)[C@H](CC(=O)O)NC(=O)[C@H](CCc2ccc(O)cc2)NC(=O)[C@H](Cc2ccccc2)NC(=O)[C@H](Cc2ccc(O)cc2)NC(=O)[C@H](CC(N)=O)NC1=O [compound 37] (I: {CH2CO}-WWVDVKGVNYF[hTyr]DCG-NH2 / II: {CH2CO}-WWVDVKGVNYF[hTyr]DCG-NH2; linker I:6-II:6 via X2; thioether I:N-I:14, II:N-II:14)	2-A (50% or more activity at 10 nM)	2-B (50% or more activity at 100 nM)	–	–
Dimer Structure No. 1: complex of Peptide Sequence No. 3 (W-W-V-D-V-Q-D-D-L-Y-F-V-D-C-G) and Linker Structure No. 1 (PEG12c-K-PEG12c), Conjugation No. 15 (WWVDVQDDLYFVDCG; also: dimer via PEG12c-K-PEG12c linker)	2-C (1% or more but less than 50% activity at 100 nM)	2-B (50% or more activity at 100 nM)	4-D (≥1% but <50% activity at 100 nM)	–
CC(C)[C@@H]1NC(=O)[C@H](CC(=O)O)NC(=O)[C@H](C(C)(C)C)NC(=O)[C@H](Cc2c[nH]c3ccccc23)NC(=O)[C@H](Cc2c[nH]c3ccccc23)NC(=O)CSC[C@@H](C(=O)NCC(N)=O)NC(=O)[C@H](CC(=O)O)NC(=O)[C@H](CCc2ccc(O)cc2)NC(=O)[C@H](Cc2ccc(NC(=N)N)cc2)NC(=O)[C@H](Cc2ccc(O)cc2)NC(=O)[C@H](CC(C)(C)C)NC(=O)[C@H](CC(=O)O)NC(=O)[C@H](CC(=O)O)NC(=O)[C@H](CCCCNC(=O)OCCOCCOCCOCCOCCOCCOCCOCCOCCOCCOCCOCCOCCOCCOCCOCCOC(=O)NCCCC[C@@H]2NC(=O)[C@H](C(C)C)NC(=O)[C@H](CC(=O)O)NC(=O)[C@H](C(C)(C)C)NC(=O)[C@H](Cc3c[nH]c4ccccc34)NC(=O)[C@H](Cc3c[nH]c4ccccc34)NC(=O)CSC[C@@H](C(=O)NCC(N)=O)NC(=O)[C@H](CC(=O)O)NC(=O)[C@H](CCc3ccc(O)cc3)NC(=O)[C@H](Cc3ccc(NC(=N)N)cc3)NC(=O)[C@H](Cc3ccc(O)cc3)NC(=O)[C@H](CC(C)(C)C)NC(=O)[C@H](CC(=O)O)NC(=O)[C@H](CC(=O)O)NC2=O)NC1=O [compound 53] (I: {CH2CO}-WW[Tle]DVKDD[tBuAla]Y[Phe(4-guanidino)][hTyr]DCG-NH2 / II: {CH2CO}-WW[Tle]DVKDD[tBuAla]Y[Phe(4-guanidino)][hTyr]DCG-NH2; linker I:6-II:6 via X1; thioether I:N-I:14, II:N-II:14)	–	–	–	3-B (50% or more activity at 5 nM)
